From ChEMBL document CHEMBL1201862, “PubChem BioAssay data set” (2004)
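96-well plates; 48 h exposure; 5 concentrations. Endpoints by linear interpolation between flanking doses. Not reached: highest tested concentration assigned. GI50 marks 50% less growth.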 Calls of active or inactive are those of the source. No stated cut-off is given here; in the data, active = GI50 up to about 1.1 µM and inactive = higher.

Experiments:
Experiment in all cases: NCI-60 cell line screen, 48 h
786-0 = system: 786-0
A498 = system: A498
CAKI-1 = system: CAKI-1
COLO 205 = system: COLO 205
EKVX = system: EKVX
HCC 2998 = system: HCC 2998
HCT-15 = system: HCT-15
HL-60 = system: HL-60
HOP-62 = system: HOP-62
IGROV-1 = system: IGROV-1
MOLT-4 = system: MOLT-4
NCI-H23 = system: NCI-H23
OVCAR-3 = system: OVCAR-3
SF-268 = system: SF-268
SF-295 = system: SF-295
UO-31 = system: UO-31
ACHN = system: ACHN

Row | Compound | GI50 (786-0) | GI50 (A498) | GI50 (CAKI-1) | GI50 (COLO 205) | GI50 (EKVX) | GI50 (HCC 2998) | GI50 (HCT-15) [µM] | GI50 (HL-60) | GI50 (HOP-62) | GI50 (IGROV-1) | GI50 (MOLT-4) | GI50 (NCI-H23) | GI50 (OVCAR-3) | GI50 (SF-268) | GI50 (SF-295) | GI50 (UO-31) | GI50 (ACHN)
1 | CCCCCCCC(=O)NCC(O)CNC(=O)CCCCCCC | > 100 µM (inactive) | > 100 µM (inactive) | > 100 µM (inactive) | > 100 µM (inactive) | > 100 µM (inactive) | > 100 µM (inactive) | > 100 | > 100 µM (inactive) | > 100 µM (inactive) | > 100 µM (inactive) | > 100 µM (inactive) | > 100 µM (inactive) | > 100 µM (inactive) | > 100 µM (inactive) | > 100 µM (inactive) | > 100 µM (inactive) | 
2 | OC(c1ccccn1)C1CNc2ccccc21 (centres undefined) | > 100 µM (inactive) | > 100 µM (inactive) | > 100 µM (inactive) | > 100 µM (inactive) | > 100 µM (inactive) | > 100 µM (inactive) | > 100 | > 100 µM (inactive) | > 100 µM (inactive) | > 100 µM (inactive) | > 100 µM (inactive) | > 100 µM (inactive) | > 100 µM (inactive) | > 100 µM (inactive) | > 100 µM (inactive) | > 100 µM (inactive) | > 100 µM (inactive)
3 | C/C=C(/I)CBr | 17 µM (inactive) | > 10 µM (inactive) | 1.07 µM (active) | 13.2 µM (inactive) | 21.7 µM (inactive) | 15.9 µM (inactive) | 18.2 | 4.49 µM (inactive) | 22.5 µM (inactive) | 16 µM (inactive) | 15.9 µM (inactive) | 16.7 µM (inactive) |  | 23.6 µM (inactive) |  | 18.9 µM (inactive) | 21.8 µM (inactive)
4 | COC1OC(C)C(OC(=O)C(C)(C)C)C(C)(O)C1O (centres undefined) | > 100 µM (inactive) | > 100 µM (inactive) | > 100 µM (inactive) | > 100 µM (inactive) |  | > 100 µM (inactive) | > 100 | > 100 µM (inactive) | > 100 µM (inactive) | > 100 µM (inactive) | > 100 µM (inactive) | > 100 µM (inactive) | > 100 µM (inactive) | > 100 µM (inactive) | > 100 µM (inactive) |  | 
5 | COc1ccc(NS(=O)(=O)c2ccc(/N=C3\C=C(Nc4ccc(S(=O)(=O)Nc5ccc(OC)nn5)cc4)C(=O)c4ccccc43)cc2)nn1 | 17.8 µM (inactive) | 15.3 µM (inactive) | 22 µM (inactive) | 17.7 µM (inactive) | 24.8 µM (inactive) | 19.6 µM (inactive) | 17 | > 100 µM (inactive) |  | 23.9 µM (inactive) | 87.9 µM (inactive) | 16.2 µM (inactive) | 21 µM (inactive) | 21.4 µM (inactive) | 17.1 µM (inactive) | 19.7 µM (inactive) | 19.1 µM (inactive)
6 | Cc1ccc(C)c(N2C(=O)C(=O)C(c3nc4ccccc4o3)/C(=N/N)C2=O)c1 (centres undefined) | > 100 µM (inactive) | > 100 µM (inactive) | > 100 µM (inactive) | > 100 µM (inactive) | > 100 µM (inactive) | > 100 µM (inactive) | > 100 | > 100 µM (inactive) | > 100 µM (inactive) | > 100 µM (inactive) | > 100 µM (inactive) | > 100 µM (inactive) | > 100 µM (inactive) | > 100 µM (inactive) | > 100 µM (inactive) | > 100 µM (inactive) | > 100 µM (inactive)
7 | NS(=O)(=O)c1cc2c(cc1Cl)NC(C(=O)c1cc(=O)c3ccc(O)cc3o1)=NS2(=O)=O | > 100 µM (inactive) | > 100 µM (inactive) | > 100 µM (inactive) | > 100 µM (inactive) | > 100 µM (inactive) | > 100 µM (inactive) | > 100 | > 100 µM (inactive) | > 100 µM (inactive) | > 100 µM (inactive) | > 100 µM (inactive) | > 100 µM (inactive) | > 100 µM (inactive) | > 100 µM (inactive) | > 100 µM (inactive) | > 100 µM (inactive) | > 100 µM (inactive)
8 | Cc1c(C(=O)NCCO)[n+]([O-])c2cc(Cl)ccc2[n+]1[O-] | > 100 µM (inactive) | > 100 µM (inactive) |  | > 100 µM (inactive) | > 100 µM (inactive) | > 100 µM (inactive) | > 100 | > 100 µM (inactive) | > 100 µM (inactive) | > 100 µM (inactive) | > 100 µM (inactive) | > 100 µM (inactive) | > 100 µM (inactive) | > 100 µM (inactive) | > 100 µM (inactive) | > 100 µM (inactive) | > 100 µM (inactive)
9 | Nc1nc(N)c(N=O)c(Nc2ccc(Br)cc2)n1 | 28.7 µM (inactive) | 17.6 µM (inactive) | 29.4 µM (inactive) | 19.9 µM (inactive) | 40.8 µM (inactive) | 78.9 µM (inactive) | 15.3 | > 100 µM (inactive) | 14.6 µM (inactive) | 3.46 µM (inactive) |  | 23.4 µM (inactive) | 13.1 µM (inactive) | 12.9 µM (inactive) | 29 µM (inactive) |  | 6.58 µM (inactive)
10 | CS/C(=N\C(=S)Nc1ccccc1)Nc1ccccc1 | > 10 µM (inactive) | 21.9 µM (inactive) | 14.6 µM (inactive) | 23.8 µM (inactive) | > 10 µM (inactive) | 21.7 µM (inactive) | 17.9 | 10.6 µM (inactive) | 27.9 µM (inactive) | 16.4 µM (inactive) | 12.9 µM (inactive) | 29.4 µM (inactive) | 21 µM (inactive) | 25.6 µM (inactive) | 21.5 µM (inactive) | 11.6 µM (inactive) | 17.5 µM (inactive)
11 | Cc1cc2c(cc1C)[n+]([O-])c(-c1c(Cl)cccc1Cl)c(N)[n+]2[O-] | 52 µM (inactive) | 26.2 µM (inactive) | 31 µM (inactive) | 18.7 µM (inactive) | 46.3 µM (inactive) | 25.8 µM (inactive) | 28.4 | 26 µM (inactive) | 30.5 µM (inactive) | 41.3 µM (inactive) | 26.2 µM (inactive) | 24.1 µM (inactive) | 28.2 µM (inactive) | 32.9 µM (inactive) | 42.5 µM (inactive) | 30.3 µM (inactive) | 36.5 µM (inactive)
12 | O=C1OC(=O)C2C3CCC(O3)C12 (centres undefined) | > 100 µM (inactive) | > 100 µM (inactive) | > 100 µM (inactive) | > 100 µM (inactive) | > 100 µM (inactive) | > 100 µM (inactive) |  | > 100 µM (inactive) | > 100 µM (inactive) | > 100 µM (inactive) | > 100 µM (inactive) | > 100 µM (inactive) | > 100 µM (inactive) | > 100 µM (inactive) | > 100 µM (inactive) | > 100 µM (inactive) | > 100 µM (inactive)
13 | CC(Oc1cc2oc(=O)cc(-c3ccccc3)c2cc1Cl)C(=O)O (centres undefined) | > 100 µM (inactive) | > 100 µM (inactive) | > 100 µM (inactive) | > 100 µM (inactive) | > 100 µM (inactive) | > 100 µM (inactive) |  | > 100 µM (inactive) | > 100 µM (inactive) | > 100 µM (inactive) | > 100 µM (inactive) | > 100 µM (inactive) | > 100 µM (inactive) | > 100 µM (inactive) | > 100 µM (inactive) | > 100 µM (inactive) | > 100 µM (inactive)
